A short description of the first data set: in vitro. The conditions noted are these: human, hela cells, % viability.
With `CCOC(=O)c1cccc(NS(=O)(=O)c2cc(F)c(Br)cc2F)c1` [CBK034333], the viability (commonly a read-out of living cells in per cent, often relative to untreated cells) at 28.5 h, 10 µM amounted to 89.2%.
In the case of `CC(=O)Nc1cc(S(=O)(=O)N2CCOCC2)c(Br)cc1C` [CBK034334], the viability at 28.5 h, 10 µM was found to be 92.8%.
Still for that read-out and setting: the result for `CCOC(=O)c1cccc(NS(=O)(=O)c2c(C)noc2C)c1` [CBK034339] reads 110%; that for `CCOC(=O)c1cccc(NS(=O)(=O)c2ccc(C)c([N+](=O)[O-])c2)c1` [CBK034343], 84.8%.
Same read-out and setting: the result for `CCN(CC)C(=O)c1ccc(NS(=O)(=O)c2cc(F)c(Br)cc2F)cc1` [CBK034388] reads 90.1%; that for `CCN(CC)C(=O)c1ccc(NS(=O)(=O)Cc2ccccc2[N+](=O)[O-])cc1` [CBK034396], 97.1%.
For the compound `Cc1noc(C)c1S(=O)(=O)Nc1ccc(C(=O)Nc2ccc(F)cc2)cc1` [CBK034410], the viability at 28.5 h, 10 µM is 95.1%.
On the same count and under the same terms, the result for `CCCCC(O)(Cc1onc(-c2ccccc2)c1C(=O)N(C)C)c1ccc(CN2CCCC2)cc1` (stereo not shown) [CBK034415T] reads 113%.
As for `CCOC(=O)CNS(=O)(=O)c1ccc(Cl)c(Cl)c1Cl` [CBK034428], the viability at 28.5 h, 10 µM was found to be 92%.
Same read-out and setting: as for `CCCc1ccc(S(=O)(=O)NCC(=O)OCC)cc1` [CBK034429], the figure is 113%; as for `CCOC(=O)CNS(=O)(=O)c1ccc(-c2ccccc2)cc1` [CBK034435], 99.5%.
As to `CCOC(=O)CNS(=O)(=O)c1ccc(F)cc1` [CBK034442], the viability at 28.5 h, 10 µM was found to be 92.3%.
The same measure, in the same setting: as for `CCOC(=O)CNS(=O)(=O)c1ccc(C(F)(F)F)cc1[N+](=O)[O-]` [CBK034446], the figure is 102%; as for `O=C(O)CNS(=O)(=O)c1cc(Cl)sc1Cl` [CBK034452], 91.4%; as for `COc1ccc(S(=O)(=O)NCC(=O)O)cc1OC` [CBK034454], 96.2%.
Still for that read-out and setting: as for `O=C(O)CNS(=O)(=O)c1cc(Br)c(Cl)s1` [CBK034455], the figure is 114%; as for `O=C(O)CNS(=O)(=O)c1ccc(-c2ccccc2)cc1` [CBK034457], 98.9%; as for `O=C(O)CNS(=O)(=O)c1ccc2ccccc2c1` [CBK034460], 94.1%.
Still for that read-out and setting: as for `O=C(O)CNS(=O)(=O)c1cccc2cccnc12` [CBK034462], the figure is 85.9%; as for `O=C(CNS(=O)(=O)c1ccc(Cl)c(Cl)c1Cl)N1CCOCC1` [CBK034472], 110%.
As to `O=C(CNS(=O)(=O)c1cc(Br)c(Cl)s1)N1CCOCC1` [CBK034474], the viability at 28.5 h, 10 µM worked out at 100%.
The same measure, in the same setting: the result for `CN1CCN(C(=O)CNS(=O)(=O)c2cc(F)c(Br)cc2F)CC1` [CBK034481] reads 99.5%; that for `CN1CCN(C(=O)CNS(=O)(=O)c2cc(Br)c(Cl)s2)CC1` [CBK034482], 94%; that for `CCN(CC)C(=O)CNS(=O)(=O)c1ccc(OC)c(OC)c1` [CBK034499], 103%.
`CCN(CC)C(=O)CNS(=O)(=O)Cc1ccccc1[N+](=O)[O-]` [CBK034504]: the viability at 28.5 h, 10 µM worked out at 94.3%.
Regarding `O=C(CN1CCCC1=O)N1CCN(C(=O)c2ccc(Br)o2)CC1` [CBK034530], the viability at 28.5 h, 10 µM was 90.8%.
Same read-out and setting: the result for `CCCc1ccc(S(=O)(=O)Nc2ccc(C(=O)N3CCN(C)CC3)cc2)cc1` [CBK034547] reads 90.1%.
`CN1CCN(C(=O)c2ccc(NS(=O)(=O)c3ccc(Oc4ccccc4)cc3)cc2)CC1` [CBK034559]: the viability at 28.5 h, 10 µM is 97.4%.
Consider `O=S(=O)(Nc1nc(CCNCCO)cs1)c1ccc(Oc2ccccc2)cc1` [CBK034632], for which the viability at 28.5 h, 10 µM was 111%.
On the same count and under the same terms, the result for `Cc1ccc(NS(=O)(=O)c2c(Br)sc3ccnc(N4CCN(C)CC4)c23)cc1` [CBK034654C] reads 103%; that for `CC(NC(=O)N(CCCN)Cc1ccccc1C(F)(F)F)c1ccccc1` (stereo not shown) [CBK034668C], 99.9%; that for `CC(NC(=O)N(CCCN)Cc1c[nH]c(-c2ccccc2)n1)c1cccc2ccccc12` (stereo not shown) [CBK034672C], 119%.
Take `COC(=O)c1sccc1NS(=O)(=O)c1ccccc1C(F)(F)F` [CBK034717]: the viability at 28.5 h, 10 µM was 108%.
The same measure, in the same setting: the result for `COc1ccc(S(=O)(=O)Nc2sccc2C#N)cc1` [CBK034732] reads 110%; that for `Cc1ccc(C#N)c(S(=O)(=O)Nc2cc(N3C[C@@H](C)N[C@@H](C)C3)c3occc3c2)c1` [CBK034756C], 89.7%.
The same measure, in the same setting: the result for `O=C(NC(=O)C1CCNCC1)Nc1ccccc1` [CBK034794] reads 93.8%; that for `CC(C)N1CCC(C(=O)NC(=O)Nc2ccc3c(c2)OCCO3)CC1` [CBK034799], 93.6%.
Same read-out and setting: as for `CC(C)N1CCC(C(=O)NC(=O)NCCOc2cccc3ccccc23)CC1` [CBK034807], the figure is 91.9%.
Turning to `COc1cccc(CNC(=O)NC(=O)C2CCN(C)CC2)c1` [CBK034828], the viability at 28.5 h, 10 µM stood at 91.9%.
The same measure, in the same setting: as for `COc1cc(CNC(=O)NC(=O)C2CCN(C(C)=O)CC2)cc(OC)c1OC` [CBK034833], the figure is 105%; as for `CC(=O)N1CCC(C(=O)NC(=O)NCc2ccc(F)cc2)CC1` [CBK034834], 107%; as for `O=C(NCc1ccc(F)cc1)NC(=O)C1CCN(CCc2ccc(Br)cc2)CC1` [CBK034836], 95.2%.
The same measure, in the same setting: the result for `COc1ccc(CNC(=O)NC(=O)C2CCN(C(C)=O)CC2)c(OC)c1` [CBK034839] reads 96.9%.
For `CC(=O)N1CCC(C(=O)NC(=O)NC2CCCCC2)CC1` [CBK034847], the viability at 28.5 h, 10 µM came out at 99.4%.
Take `CC(=O)N1CCC(C(=O)NC(=O)NCCc2ccccc2)CC1` [CBK034851]: the viability at 28.5 h, 10 µM worked out at 96.9%.
Still for that read-out and setting: the result for `O=C(NCc1ccccc1)NC(=O)C1CCN(CCCOc2cccc3ccccc23)CC1` [CBK034856] reads 84.6%; that for `COc1cc(CNC(=O)NC(=O)C2CCN(CCCc3ccc(Cl)c(Cl)c3)CC2)cc(OC)c1OC` [CBK034858], 107%; that for `COc1cccc(CCNC(=O)NC(=O)C2CCN(S(C)(=O)=O)CC2)c1` [CBK034860], 99%.
On the same count and under the same terms, as for `Cc1ccccc1NC(=O)NC(=O)C1CCN(S(C)(=O)=O)CC1` [CBK034862], the figure is 87.7%; as for `Cc1ccc(NC(=O)NC(=O)C2CCN(S(C)(=O)=O)CC2)cc1` [CBK034863], 93.4%.
With `Cn1cc(CCN2CCC(C(=O)NC(=O)Nc3ccccc3)CC2)c2ccccc21` [CBK034867], the viability at 28.5 h, 10 µM worked out at 83.6%.
On the same count and under the same terms, as for `COc1ccc(CNC(=O)NC(=O)C2CCN(CCCc3ccc4c(c3)OCO4)CC2)c(OC)c1` [CBK034875], the figure is 100%.
Same read-out and setting: the result for `CCOc1ccccc1NC(=O)NC(=O)C1CCN(C(C)c2ccc(Cl)cc2)CC1` (stereo not shown) [CBK034899] reads 98.4%; that for `CCOc1ccccc1NC(=O)NC(=O)C1CCN(CCCc2ccc3c(c2)OCO3)CC1` [CBK034924], 88.6%; that for `CC(C)NC(=O)NC(=O)C1CCN(CCCc2ccc(Cl)c(Cl)c2)CC1` [CBK034947], 89.8%.
The same measure, in the same setting: the result for `Cc1ccc2[nH]cc(CCN3CCC(C(=O)NC(=O)Nc4ccccc4F)CC3)c2c1` [CBK034974] reads 93%; that for `Cc1ccc(NC(=O)NC(=O)C2CCN(CCc3ccc(F)cc3)CC2)cc1Cl` [CBK035047], 89.5%.
Turning to `Cc1ccc(NC(=O)NC(=O)C2CCN(CCCc3ccc(F)cc3)CC2)cc1Cl` [CBK035057], the viability at 28.5 h, 10 µM amounted to 94.2%.
For the compound `O=C(NC(=O)C1CCN(CCc2cccc(C(F)(F)F)c2)CC1)Nc1cccc2ccccc12` [CBK035070], the viability at 28.5 h, 10 µM came out at 92.2%.
For `COc1ccc(Cl)cc1NC(=O)NC(=O)C1CCN(CCOc2cccc3ccccc23)CC1` [CBK035116], the viability at 28.5 h, 10 µM was found to be 90.9%.
In the case of `O=C(NC(=O)C1CCN(CCc2ccc3c(c2)CCO3)CC1)Nc1ccccc1Cl` [CBK035147], the viability at 28.5 h, 10 µM worked out at 84.3%.
`CCNC(=O)NC(=O)C1CCN(CCc2ccc(O)c(OC)c2)CC1` [CBK035184]: the viability at 28.5 h, 10 µM came out at 102%.
The same measure, in the same setting: the result for `O=C(NC(=O)C1CCN(CC2COc3ccccc3O2)CC1)Nc1ccccc1` (stereo not shown) [CBK035267] reads 92.4%; that for `COc1cc(CCN2CCC(c3nc(-c4ccccc4)c4ccccn34)CC2)cc(OC)c1OC` [CBK035278], 91%.
Still for that read-out and setting: the result for `Clc1ccc(-c2nc(C3CCN(CCc4ccccc4)CC3)n3ccccc23)cc1` [CBK035316] reads 90.7%; that for `COc1cccc(-c2nc(C3CCN(CCc4ccc(F)cc4)CC3)n3ccccc23)c1` [CBK035373], 94.7%; that for `c1ccc(-c2nc(C3CCNCC3)n3ccncc23)cc1` [CBK035434], 100%.
Same read-out and setting: as for `NCCc1nc(-c2ccccc2)c2cnccn12` [CBK035705], the figure is 101%.
For `CNCCc1nc(-c2cccs2)c2ccccn12` [CBK035905], the viability at 28.5 h, 10 µM was 94.5%.
Turning to `CNCCc1nc(-c2ccc(F)cc2)c2cnccn12` [CBK035927], the viability at 28.5 h, 10 µM amounted to 90.7%.
On the same count and under the same terms, as for `CS(=O)(=O)N1CCC(c2nc(-c3ccc(C(F)(F)F)cc3)c3ccccn23)CC1` [CBK036006], the figure is 86.4%.
Same read-out and setting: as for `COc1ccn2c(CCCN(C)C3Cc4ccccc4C3)nc(-c3ccc4c(c3)OCO4)c2c1` [CBK036303], the figure is 100%; as for `CN1CCC(Oc2ncccc2OCc2ccccc2)CC1` [CBK036311], 97.4%.
Still for that read-out and setting: the result for `Cn1cc(-c2ccccc2CN2CCCC2)c2onc(-c3ccccc3)c2c1=O` [CBK036319C] reads 115%; that for `CCCCCNC(=N)NC1Cc2ccccc2C1` [CBK036321T], 98.8%.
Regarding `O=C(Nc1ccccc1N1CCCNCC1)c1ccnc2ccccc12` [CBK036325T], the viability at 28.5 h, 10 µM stood at 83.4%.
With `CCOc1ccsc1C(=O)Nc1cc2ccccc2c(N2CCNCC2)n1` [CBK036341T], the viability at 28.5 h, 10 µM turned out to be 99.3%.
Take `CCOc1ccsc1C(=O)Nc1ccccc1N1CCCNCC1` [CBK036354T]: the viability at 28.5 h, 10 µM came to 95.7%.

The data set is the same for the next values; noted with them: human, hela cells, % viability, bulk resorufin, single well.
In the case of `COC(=O)c1cccc2c3c(n(Cc4ccccc4)c12)CCCC3=O` [CBK036304], the viability at 28.5 h, 10 µM was determined as 94.7%.
